Reference: US7300918B2, “Method of producing vaccines from protein signal oligopeptides” (priority 1994, dated 2007)
Where “and” joins values, the source holds several entries; their conditions need not be identical. Equal entries are not always repeated.

Test system: Hep G2 cells
Experiment: Cholesterol measurement in Hep G2 cells exposed to HMG CoA Reductase peptides
Type: cell-based, human
Details: 24 hrs; for Cholesterol Content Cell / Cholesterol Content Media: triplicate; for Total Cholesterol: cell + media
Text: Cholesterol Measurement in Hep G2 Cells Exposed to HMG CoA Reductase Peptides:
A. Selection of therapeutic oligopeptides for these expenments • i. The peptides were selected according to the method described herein. In brief, 6 oligopeptides corresponding to the hydrophilic amino acid maxima of human hydroxy-methyl-glutaryl-CoA-reductase were selected according to the maximum hydrophilicity determining algorithm described herein. The following sequences were selected. • I. N-SQDEVREN-C (SEQ ID NO:42) • II. N-ELSRESREGR-C (SEQ ID NO:44) • III. N-RVLEEEENK-C (SEQ ID NO:46) • IV. N-QKCDSVEE-C (SEQ ID NO:56) • V. N-EETGINRERKVE-C (SEQ ID NO:60) • VI. N-EPEIELPREPRPNEE-C (SEQ ID NO:64)
B. Materials and methods • i. Hep G2 cells were seeded into six-well dishes at 30,0000 cells/well in MEM-supplemented media with 10% FBS. Cells were grown to near confluency and exposed to • I. media alone • II. Mevastatin 5ΦMol (Cholestrol-lowering Statin drug) and, • III. HMG CoA Reductase peptides at 1, 10 and 100 ΦMol. • ii. All treatments were carried out in triplicate. After 24 hrs the media was removed and saved. • iii. The cells were washed with 1 ml of PBS and combined with the media. The cells were harvested with 1 ml of 0.1 N NaOH. • iv. Samples, both media and cells, were saponified with 0.5 ml 50% KOH, 3 ml ethanol, separately at 80EC for 2 hrs. • v. After cooling, the samples were extracted twice with petroleum ether and washed with NaOH. • vi. The samples were the dried under nitrogen and suspended in 200 Φl ethanol. • vii. 50 Φl of this suspension was used for determination of cholesterol. Cholesterol was determined in the samples and standards using colorimetric assay (Sigma Kit). • viii. Protein was determined by Lowry's method and the results were expressed as Φgm cholesterol/mg protein. C. Results • i.

Row | Compound | Cholesterol Lowering in % of Control (5 ΦM) | Cholesterol Content Cell (5 ΦM) | Cholesterol Content Media (5 ΦM) | Total Cholesterol (5 ΦM) | Cholesterol Lowering in % of Control (1 ΦM) | Cholesterol Content Cell (1 ΦM) | Cholesterol Content Media (1 ΦM) | Cholesterol Lowering in % of Control (10 ΦM) | Cholesterol Content Cell (10 ΦM) | Cholesterol Content Media (10 ΦM) | Cholesterol Lowering in % of Control (100 ΦM) | Cholesterol Content Cell (100 ΦM) | Cholesterol Content Media (100 ΦM) | Total Cholesterol (1 ΦM) | Total Cholesterol (10 ΦM) | Total Cholesterol (100 ΦM)
1 | CC[C@H](C)C(=O)O[C@H]1CCC=C2C=C[C@H](C)[C@H](CC[C@@H]3C[C@@H](O)CC(=O)O3)[C@H]21 [Mevastatin, reference compound] | 19.0% and 18.0% | 125.0 ± 4.6 Φ gm/mg protein and 124.4 ± 4.4 Φ gm/mg protein | 37.5 ± 3.0 Φ gm/mg protein and 57.5 ± 5.2 Φ gm/mg protein | 162.6 ± 7.6 Φ gm/mg protein and 182.0 ± 7.0 Φ gm/mg protein | – | – | – | – | – | – | – | – | – | – | – | –
2 | N-EETGINRERKVE-C [Peptide 5, oligopeptide corresponding to a hydrophilic amino acid maximum of human hydroxy-methyl-glutaryl-CoA-reductase] | – | – | – | – | 1.5% | 140.7 ± 8.6 Φ gm/mg protein | 56.8 ± 1.0 Φ gm/mg protein | 0.0% | 149.0 ± 4.4 Φ gm/mg protein | 50.7 ± 1.0 Φ gm/mg protein | 0.0% | 161.7 ± 23.5 Φ gm/mg protein | 48.0 ± 1.6 Φ gm/mg protein | 197.0 ± 9.2 Φ gm/mg protein | 200.0 ± 5.0 Φ gm/mg protein | 210.0 ± 25.0 Φ gm/mg protein
3 | N-ELSRESREGR-C [Peptide 2, oligopeptide corresponding to a hydrophilic amino acid maximum of human hydroxy-methyl-glutaryl-CoA-reductase] | – | – | – | – | 29.0% | 94.0 ± 8.3 Φ gm/mg protein | 64.3 ± 4.2 Φ gm/mg protein | 33.0% | 85.0 ± 8.4 Φ gm/mg protein | 63.7 ± 9.5 Φ gm/mg protein | 34.0% | 86.0 ± 4.7 Φ gm/mg protein | 59.0 ± 6.0 Φ gm/mg protein | 158.3 ± 6.3 Φ gm/mg protein | 148.6 ± 11.8 Φ gm/mg protein | 146.9 ± 8.8 Φ gm/mg protein
4 | N-EPEIELPREPRPNEE-C [Peptide 6, oligopeptide corresponding to a hydrophilic amino acid maximum of human hydroxy-methyl-glutaryl-CoA-reductase] | – | – | – | – | 4.0% | 144.3 ± 7.5 Φ gm/mg protein | 47.4 ± 0.5 Φ gm/mg protein | 8.0% | 136.0 ± 12.2 Φ gm/mg protein | 48.0 ± 3.4 Φ gm/mg protein | 9.0% | 132.0 ± 4.4 Φ gm/mg protein | 50.4 ± 1.0 Φ gm/mg protein | 192.0 ± 8.0 Φ gm/mg protein | 184.0 ± 8.4 Φ gm/mg protein | 182.4 ± 4.8 Φ gm/mg protein
5 | N-QKCDSVEE-C [Peptide 4, oligopeptide corresponding to a hydrophilic amino acid maximum of human hydroxy-methyl-glutaryl-CoA-reductase] | – | – | – | – | 8.0% | 134.7 ± 3.2 Φ gm/mg protein | 50.4 ± 2.5 Φ gm/mg protein | 10.0% | 126.1 ± 4.2 Φ gm/mg protein | 49.0 ± 1.0 Φ gm/mg protein | 9.0% | 127.7 ± 9.3 Φ gm/mg protein | 53.8 ± 0.5 Φ gm/mg protein | 184.3 ± 5.5 Φ gm/mg protein | 175.2 ± 3.8 Φ gm/mg protein | 181.7 ± 9.3 Φ gm/mg protein
6 | N-RVLEEEENK-C [Peptide 3, oligopeptide corresponding to a hydrophilic amino acid maximum of human hydroxy-methyl-glutaryl-CoA-reductase] | – | – | – | – | 10.0% | 137.3 ± 4.5 Φ gm/mg protein | 64.0 ± 2.7 Φ gm/mg protein | 10.0% | 135.0 ± 4.5 Φ gm/mg protein | 65.5 ± 4.7 Φ gm/mg protein | 10.0% | 135.0 ± 7.0 Φ gm/mg protein | 65.5 ± 1.4 Φ gm/mg protein | 201.3 ± 3.3 Φ gm/mg protein | 200.7 ± 9.0 Φ gm/mg protein | 200.5 ± 5.4 Φ gm/mg protein
7 | N-SQDEVREN-C [Peptide 1, oligopeptide corresponding to a hydrophilic amino acid maximum of human hydroxy-methyl-glutaryl-CoA-reductase] | – | – | – | – | 28.0% | 92.5 ± 4.7 Φ gm/mg protein | 65.2 ± 4.0 Φ gm/mg protein | 30.0% | 88.6 ± 1.6 Φ gm/mg protein | 60.6 ± 0.5 Φ gm/mg protein | 30.0% | 94.0 ± 4.0 Φ gm/mg protein | 61.1 ± 2.4 Φ gm/mg protein | 158.7 ± 5.6 Φ gm/mg protein | 149.1 ± 2.0 Φ gm/mg protein | 155.3 ± 6.4 Φ gm/mg protein
